Measured values published in patent US20190030046A1, “USE OF PURE COMPOUNDS EXTRACTED FROM ANTRODIA CAMPHORATA” (priority 2016, published 2019).

Experiments:
[1] = test system: membrane GLUT4; test: Membrane GLUT4 protein expression in C2C12 myotube cells (Western blot); format: cell-based; details: 1, 5, 10, and 25 μg/mL, 25 min
Description: (§1) In the present invention, C2C12 skeletal myoblasts (ATCC, CRL-1772) were maintained in growth media consisting of Dulbecco's modified Eagle's medium (DMEM) (Gibco BRL) and supplemented with 10% Fetal Bovine Serum (FBS) (Hyclone) and 100 U/mL penicillin/100 μg/mL streptomycin (Gibco BRL), and split 1:4 using 0.05% trypsin when 80% confluent. Myoblasts were diluted and placed in a 9 cm-diameter dish. Cells were cultured to achieve 80%-90% confluency and then the growth media was changed as 2% FBS/DMEM every 24 h for 5-7 days.
(§2) In experiments for determining GLUT4 and p-Akt(Ser473)/t-Akt proteins in tubes, differentiated C2C12 cells were serum-starved in DMEM/BSA for 2 h at 37° C. prior to incubation with MeOH crude extract (at 20, 100, 200, and 500 μg/mL), test compounds (at 1, 5, 10, and 25 μg/mL), or vehicle for 25 min, or 100 nM insulin for 25 min.
(§3) The cultures obtained by cell culture above were centrifuged, and the resulting pellet was resuspended in a homogenization buffer. The forgoing steps were performed with a filtration membrane. Protein concentrations were measured using a BCA assay (Pierce). Equal amounts of protein were diluted four times in SDS sample buffer, and subjected to SDS PAGE and Western blotting with antibodies specific for Akt, p-Akt Ser^473, and GLUT4. Density blotting analysis was performed using Alpha Easy FC software.

[2] = test system: phospho-Akt(Ser473)/total-Akt(Ser473); test: phospho-Akt(Ser473)/total-Akt in C2C12 myotube cells (Western blot); format: cell-based; details: TT 10 and 25 μg/mL, 25 min
Description: as §1, §2, §3

[3] = test system: C2C12 myoblasts; test: MTT test; format: cell-based; details: dose of 1 to 25 μg/mL
[4] = HFD-induced diabetic mice: liver lipids; format: in vivo, C57BL/6J mice; details: 4 weeks
[5] = HFD-induced diabetic mice: histopathology (H-E) of epididymal white adipose and liver tissue; format: in vivo, C57BL/6J mice; details: for Adipocyte area: epididymal white adipose, 4 weeks
Description: (§4) The difference indicates the daily food intake.
Examination was performed for parts of EWAT (epididymal white adipose) and liver tissue specimens collected. The specimens above were soaked in formalin and neutral buffered solution and embedded in paraffin. Parts therein (8 μm) were cut and stained with hematoxylin and eosin. Images were photographed by a microscope (Olympus BX51, Olympus, Tokyo, Japan). Please refer to FIGS. 3(A) and 3(B).

[6] = test system: G6-Pase; test: Semiquantitative RT-PCR in liver tissue: G6-Pase; format: in vivo, C57BL/6J mice; details: vs HF, 4 weeks
Description: as §4
(§5) Total RNA from liver tissue was isolated with a Trizol Reagent (Molecular Research Center, Inc., Cincinnati, Ohio, USA) according to the manufacturer's instructions. The integrity of the extracted total RNA was examined by 2% agarose gel electrophoresis, and the RNA concentration was determined by […] ultraviolet (UV) light absorbency at 260 nm and 280 nm (Spectrophotometer U-2800A, Hitachi). The total RNA (1 μg) was reverse transcribed to cDNA, and 5 μL Moloney murine leukemia virus reverse transcriptase (TEpicentre, Madison, Wis., USA). The PCR was performed in a final 25 μL containing 1 U Blend Taq-Plus (TOYOBO, Japan), 10 μL of the RT cDNA product, 10 μM of each forward (F) and reverse (R) primer, 75 mM Tris-HCL (pH 8.3) containing 1 mg/L Tween 20 (pH 8.3, also known as polyoxyethylene sorbitan monolaurate), 2.5 mM dNTP (deoxy-ribonucleoside triphosphate), and 2 mM MgCl2 (magnesium chloride). The PCR products were analyzed by 2% agarose gel and stained with ethidium bromide.

[7] = test system: GPAT; test: Semiquantitative RT-PCR in liver tissue: GPAT; format: in vivo, C57BL/6J mice; details: vs HF, 4 weeks
Description: as §4, §5

[8] = test system: SREBP-2; test: Semiquantitative RT-PCR in liver tissue: SREBP-2; format: in vivo, C57BL/6J mice; details: vs HF, 4 weeks
Description: as §4, §5

[9] = test system: CPT-1a; test: Semiquantitative RT-PCR in liver tissue: CPT-1a; format: in vivo, C57BL/6J mice; details: vs HF, 4 weeks
Description: as §4, §5

[10] = test system: UCP3; test: Semiquantitative RT-PCR in liver tissue: UCP3; format: in vivo, C57BL/6J mice; details: vs HF, 4 weeks
Description: as §4, §5

[11] = test system: membrane GLUT4; test: Western blot of skeletal muscle membrane GLUT4 in HFD mice; details: compared to HF, 4 weeks
Description: (§6) The HFD mice were subdivided into 6 groups (9 per group) followed by 8-week induction. […] Following four-week treatment and feeding, the food was removed, and the mice were fasted for 12 h and then sacrificed. Tissue samples required were collected from the mice and weighted. Some of the tissue samples were immediately stored at −80° C. and frozen for subsequent target gene analysis. Plasma samples were collected via centrifugation of whole blood at 1600×g for 15 min at 4° C., followed by plasma separation within 30 min.
(§7) We determined PPARα and FAS protein expression levels in liver tissue, PPARγ and FAS protein expression levels in adipose tissue, and membrane GLUT4 expression in skeletal muscle adipose. The total membrane fraction was collected with the buffer and determined as previously described. The membrane GLUT4, p-AMPK, and total AMPK protein content were determined by Western Blotting as previously described.

[12] = test system: FAS; test: Western blot of FAS protein in liver and adipose tissue of HFD mice; details: compared to HF, 4 weeks
Description: as §6, §7

[13] = test system: phospho-AMPK(Thr172); test: Western blot of phospho-AMPK(Thr172)/total-AMPK in skeletal muscle and liver of HFD mice; details: compared to HF, 4 weeks
Description: as §6, §7

C=C(CC[C@@H](C(=O)O)[C@H]1CC[C@@]2(C)C3=CC[C@H]4C(C)(C)[C@@H](O)CC[C@]4(C)C3=CC[C@]12C)C(C)C [TT, dehydroeburicoic acid]
protein expression level of membrane GLUT4 [1]: increase
protein expression level of phospho-Akt(Ser473)/total-Akt(Ser473) [2]: increase
toxicity to C2C12 myoblasts in MTT test [3]: non-toxic
Liver lipids: Total lipid ([4]; HF+TT1, 10 mg/kg/day oral): 64.4 mg/g
Liver lipids: Triacylglycerol ([4]; HF+TT1, 10 mg/kg/day oral): 53 µmol/g
Liver lipids: Total lipid ([4]; HF+TT2, 20 mg/kg/day oral): 61.7 mg/g
Liver lipids: Triacylglycerol ([4]; HF+TT2, 20 mg/kg/day oral): 48 µmol/g
Liver lipids: Total lipid ([4]; HF+TT3, 40 mg/kg/day oral): 57.9 mg/g
Liver lipids: Triacylglycerol ([4]; HF+TT3, 40 mg/kg/day oral): 47.1 µmol/g
Adipocyte area ([5]; HF+TT1, 10 mg/kg/day oral): 6872.5 ± 160.8 μm^2
Adipocyte area ([5]; HF+TT2, 20 mg/kg/day oral): 6530.2 ± 148.2 μm^2
Adipocyte area ([5]; HF+TT3, 40 mg/kg/day oral): 5972.4 ± 279.5 μm^2
liver ballooning degeneration ([5]; pathohistological staining): reduce
G6-Pase mRNA expression level in liver ([6]; HF+TT1, 10 mg/kg/day oral): decreased
G6-Pase mRNA expression level in liver ([6]; HF+TT2, 20 mg/kg/day oral): decreased
G6-Pase mRNA expression level in liver ([6]; HF+TT3, 40 mg/kg/day oral): decreased
GPAT mRNA expression level in liver ([7]; HF+TT1, 10 mg/kg/day oral): decreased
GPAT mRNA expression level in liver ([7]; HF+TT2, 20 mg/kg/day oral): decreased
GPAT mRNA expression level in liver ([7]; HF+TT3, 40 mg/kg/day oral): decreased
SREBP-2 mRNA expression level in liver ([8]; HF+TT1, 10 mg/kg/day oral): decreased
SREBP-2 mRNA expression level in liver ([8]; HF+TT2, 20 mg/kg/day oral): decreased
SREBP-2 mRNA expression level in liver ([8]; HF+TT3, 40 mg/kg/day oral): decreased
CPT-1a mRNA expression level in liver ([9]; HF+TT1, 10 mg/kg/day oral): increased
CPT-1a mRNA expression level in liver ([9]; HF+TT2, 20 mg/kg/day oral): increased
CPT-1a mRNA expression level in liver ([9]; HF+TT3, 40 mg/kg/day oral): increased
UCP3 mRNA expression level in liver ([10]; HF+TT2, 20 mg/kg/day oral): increased
UCP3 mRNA expression level in liver ([10]; HF+TT3, 40 mg/kg/day oral): increased
membrane expression level of GLUT4 in skeletal muscle ([11]; HF+TT1, 10 mg/kg/day oral): significantly increased
membrane expression level of GLUT4 in skeletal muscle ([11]; HF+TT2, 20 mg/kg/day oral): significantly increased
membrane expression level of GLUT4 in skeletal muscle ([11]; HF+TT3, 40 mg/kg/day oral): significantly increased
FAS protein expression level in adipose tissue ([12]; HF+TT1, 10 mg/kg/day oral): significantly decreased
FAS protein expression level in liver ([12]; HF+TT1, 10 mg/kg/day oral): significantly decreased
FAS protein expression level in adipose tissue ([12]; HF+TT2, 20 mg/kg/day oral): significantly decreased
FAS protein expression level in liver ([12]; HF+TT2, 20 mg/kg/day oral): significantly decreased
FAS protein expression level in adipose tissue ([12]; HF+TT3, 40 mg/kg/day oral): significantly decreased
FAS protein expression level in liver ([12]; HF+TT3, 40 mg/kg/day oral): significantly decreased
expression level of p-AMPK/t-AMPK proteins in liver ([13]; HF+TT1, 10 mg/kg/day oral): significantly increased
expression level of phospho-AMPK/total-AMPK in skeletal muscle ([13]; HF+TT1, 10 mg/kg/day oral): significantly increased
expression level of p-AMPK/t-AMPK proteins in liver ([13]; HF+TT2, 20 mg/kg/day oral): significantly increased
expression level of phospho-AMPK/total-AMPK in skeletal muscle ([13]; HF+TT2, 20 mg/kg/day oral): significantly increased
expression level of p-AMPK/t-AMPK proteins in liver ([13]; HF+TT3, 40 mg/kg/day oral): significantly increased
expression level of phospho-AMPK/total-AMPK in skeletal muscle ([13]; HF+TT3, 40 mg/kg/day oral): significantly increased
